Molecules are shown by their SMILES.

human EP4 receptor, sequence (P35408 whole entry): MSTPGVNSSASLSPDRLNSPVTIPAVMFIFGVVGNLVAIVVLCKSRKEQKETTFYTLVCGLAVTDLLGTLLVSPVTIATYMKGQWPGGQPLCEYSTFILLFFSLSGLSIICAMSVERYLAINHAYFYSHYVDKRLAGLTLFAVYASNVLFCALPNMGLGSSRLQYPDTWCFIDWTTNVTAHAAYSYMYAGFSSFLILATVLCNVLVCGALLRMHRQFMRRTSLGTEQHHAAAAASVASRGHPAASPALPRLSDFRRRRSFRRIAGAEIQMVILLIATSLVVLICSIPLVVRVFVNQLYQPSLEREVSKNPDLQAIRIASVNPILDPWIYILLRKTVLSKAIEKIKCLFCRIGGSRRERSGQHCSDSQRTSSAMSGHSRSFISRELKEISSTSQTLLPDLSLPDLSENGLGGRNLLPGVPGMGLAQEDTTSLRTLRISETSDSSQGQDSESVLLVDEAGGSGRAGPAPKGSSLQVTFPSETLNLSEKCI

For the assay, the target named is human EP4 receptor (Homo sapiens (Human), UniProt P35408). In words: Test for antagonism of the human EP4 receptor signal (cAMP HTRF). It counts as cell-based. To be noted: cells expressing hEP4, PGE2 at EC80 (0.4 nM), cAMP TR-FRET; read-out: Antagonism hEP4 IC50. The text has this:
The binding of the agonist prostaglandin E2 (PGE2) to the EP4 subtype of human hPGE2-R (hEP4-R) induces the activation of membrane-bound adenylate cyclases and thus the formation of cAMP. In the presence of the phosphodiesterase inhibitor IBMX, this cAMP accumulates intracellularly and is employed in a competitive detection procedure after cell lysis. In this procedure, it competes with a fluorescence-labelled cAMP (cAMP-d2) for binding to an Eu cryptate-labelled anti-cAMP antibody. In the absence of cellular cAMP, a complex is formed between the Eu cryptate-labelled anti-cAMP antibody and the cAMP-d2 molecule, which after excitation at 337 nm makes possible an energy transfer based on FRET (fluorescence resonance energy transfer) to the cAMP-d2 tracer and leads to a long-lasting fluorescence signal (emission at 665 and 620 nm). This signal is time-resolved, i.e. measured in a suitable measuring apparatus after decay of the background fluorescence (time resolved; TR-FRET). The wave ratio determination (emission 665 nm/emission 620 nm*10000) moreover makes it possible to standardize individual measurement differences in the added amounts of the detection reagents.
By means of prostaglandin E2 administration and increase in the intracellular cAMP, a lowering of the FRET signal occurs, which in the case of an antagonistic substance action increases again.
A further 20 min at room temperature later, the cell lysate is measured according to the manufacturer's instructions in a TR-FRET-suitable measuring apparatus (compare cAMP HTRF assay kit: Cisbio International 62AM6PEJ high range)
What is called IC50 is the concentration needed to halve the response being measured. For `CCn1c2ccccc2c2cc(-c3nc4cc(C(=O)NC)ccc4n3CCN(C)C)ccc21` [Example 73, 1-[2-(Dimethylamino)ethyl]-2-(9-ethyl-9H-carbazol-3-yl)-N-methyl-1H-benzimidazole-5-carboxamide], the IC50 came to 382 nM.

For the compound `CCn1c2ccccc2c2cc(-c3nc4cc(C(=O)O)ccc4n3CC3COC3)ccc21` [Example 123, 2-(9-Ethyl-9H-carbazol-3-yl)-1-(oxetan-3-ylmethyl)-1H-benzimidazole-5-carboxylic acid], the IC50 was found to be 51.5 nM.

As to `CCn1c2ccc(-c3nc4c(C)c(C(=O)O)ccc4n3CCOC)cc2c2cccc(Cl)c21` [Example 143, 2-(8-Chloro-9-ethyl-9H-carbazol-3-yl)-1-(2-methoxyethyl)-4-methyl-1H-benzimidazole-5-carboxylic acid], the IC50 was 5.19 nM.

As to `CCn1c2ccccc2c2cc(-c3nc4cc(S(N)(=O)=O)ccc4n3CCOC)ccc21` [Example 127, 2-(9-Ethyl-9H-carbazol-3-yl)-1-(2-methoxyethyl)-1H-benzimidazole-5-sulphonamide], the IC50 was determined as 305 nM.

For the compound `CCn1c2ccccc2c2cc(-c3nc4cc(C(=O)NS(=O)(=O)Cc5ccc(F)cc5)ccc4n3CCOC)ccc21` [Example 58, 2-(9-Ethyl-9H-carbazol-3-yl)-N-[(4-fluorobenzyl)sulphonyl]-1-(2-methoxyethyl)-1H-benzimidazole-5-carboxamide], the IC50 stood at 174 nM.

Take `CCn1c2ccccc2c2cc(-c3nc4cc(C(=O)N5CCC5)ccc4n3CC3CC3)ccc21` [Example 80, Azetidin-1-yl[1-(cyclopropylmethyl)-2-(9-ethyl-9H-carbazol-3-yl)-1H-benzimidazol-5-yl]-methanone]: the IC50 came to 68.3 nM.

For `CCn1c2ccccc2c2cc(-c3nc4cc(C(=O)O)ccc4n3C[C@H](O)COC)ccc21` [Example 135, 2-(9-Ethyl-9H-carbazol-3-yl)-1-[(2S)-2-hydroxy-3-methoxypropyl]-1H-benzimidazole-5-carboxylic acid], the IC50 is 340 nM.

As to `CCn1c2ccccc2c2cc(-c3nc4cc(C(=O)O)ccc4n3CCN3CCOCC3)ccc21` [Example 70, 2-(9-Ethyl-9H-carbazol-3-yl)-1-[2-(morpholin-4-yl)ethyl]-1H-benzimidazole-5-carboxylic acid], the IC50 was found to be 2460 nM.

Regarding `CCn1c2ccccc2c2cc(-c3nc4cc(C(=O)NS(C)(=O)=O)ccc4n3CCOC)ccc21` [Example 15, 2-(9-Ethyl-9H-carbazol-3-yl)-1-(2-methoxyethyl)-N-(methylsulphonyl)-1H-benzimidazole-5-carboxamide], the IC50 amounted to 23.8 nM.

Turning to `CCn1c2ccccc2c2cc(-c3nc4cc(C(=O)NS(=O)(=O)c5ccccc5C)ccc4n3CCOC)ccc21` [Example 53, 2-(9-Ethyl-9H-carbazol-3-yl)-1-(2-methoxyethyl)-N-[(2-methylphenyl)sulphonyl]-1H-benzimidazole-5-carboxamide], the IC50 worked out at 35.3 nM.

`CCn1c2ccc(-c3nc4cc(C(=O)O)ccc4n3CC3CC3)cc2c2ccncc21` [Example 108, 1-(Cyclopropylmethyl)-2-(9-ethyl-9H-beta-carbolin-6-yl)-1H-benzimidazole-5-carboxylic acid]: the IC50 is 119 nM.

On to `CCn1c2ccccc2c2cc(-c3nc4cc(C(=O)NS(=O)(=O)CC)ccc4n3CCOC)ccc21` [Example 18, 2-(9-Ethyl-9H-carbazol-3-yl)-N-(ethylsulphonyl)-1-(2-methoxyethyl)-1H-benzimidazole-5-carboxamide], for which the IC50 is 22.8 nM.

`CCn1c2ccccc2c2cc(-c3nc4cc(C(=O)NCC(F)(F)F)ccc4n3CCOC)ccc21` [Example 77, 2-(9-Ethyl-9H-carbazol-3-yl)-1-(2-methoxyethyl)-N-(2,2,2-trifluoroethyl)-1H-benzimidazole-5-carboxamide]: the IC50 was 49.2 nM.

For the compound `O=C(O)c1ccc2c(c1)nc(-c1ccc3c(c1)c1ccccc1n3CC1CC1)n2CC1CC1` [Example 35, 1-(Cyclopropylmethyl)-2-[9-(cyclopropylmethyl)-9H-carbazol-3-yl]-1H-benzimidazole-5-carboxylic acid], the IC50 was 33.8 nM.

For the compound `CCn1c2ccccc2c2cc(-c3nc4cc(C(=O)NS(=O)(=O)CCc5cccc(OC)c5)ccc4n3CCOC)ccc21` [Example 69, 2-(9-Ethyl-9H-carbazol-3-yl)-1-(2-methoxyethyl)-N-{[2-(3-methoxyphenyl)ethyl]-sulphonyl}-1H-benzimidazole-5-carboxamide], the IC50 was 155 nM.

In the case of `CCn1c2ccccc2c2cc(-c3nc4cc(C(=O)N5CCOCC5)ccc4n3CC3CC3)ccc21` [Example 29, [1-(Cyclopropylmethyl)-2-(9-ethyl-9H-carbazol-3-yl)-1H-benzimidazol-5-yl](morpholin-4-yl)methanone], the IC50 is 219 nM.

As for `CCn1c2ccccc2c2cc(-c3nc4cc(C(=O)NS(=O)(=O)CC(C)(C)C)ccc4n3CCOC)ccc21` [Example 66, N-[(2,2-Dimethylpropyl)sulphonyl]-2-(9-ethyl-9H-carbazol-3-yl)-1-(2-methoxyethyl)-1H-benzimidazole-5-carboxamide], the IC50 is 16.1 nM.

Regarding `CCn1c2ccccc2c2cc(-c3nc4cc(-c5n[nH]c(=O)o5)ccc4n3CCN(C)C)ccc21` [Example 126, 5-{1-[2-(Dimethylamino)ethyl]-2-(9-ethyl-9H-carbazol-3-yl)-1H-benzimidazol-5-yl}-1,3,4-oxadiazol-2(3H)-one], the IC50 is 118 nM.

On to `CCn1c2ccncc2c2cc(-c3nc4cc(C(=O)O)ccc4n3CC3CC3)ccc21` [Example 109, 1-(Cyclopropylmethyl)-2-(5-ethyl-5H-pyrido[4,3-b]indol-8-yl)-1H-benzimidazole-5-carboxylic acid], for which the IC50 was found to be 178 nM.

For the compound `CCn1c2ccccc2c2cc(-c3nc4cc(C(=O)NCCN5CCOCC5)ccc4n3CC3CC3)ccc21` [Example 79, 1-(Cyclopropylmethyl)-2-(9-ethyl-9H-carbazol-3-yl)-N-[2-(morpholin-4-yl)ethyl]-1H-benzimidazole-5-carboxamide], the IC50 was 106 nM.

Take `CCn1c2ccccc2c2cc(-c3nc4cc(C(=O)NS(=O)(=O)Cc5ccc(Cl)cc5)ccc4n3CCOC)ccc21` [Example 64, N-[(4-Chlorobenzyl)sulphonyl]-2-(9-ethyl-9H-carbazol-3-yl)-1-(2-methoxyethyl)-1H-benzimidazole-5-carboxamide]: the IC50 stood at 138 nM.

On to `CCn1c2ccccc2c2cc(-c3nc4cc(C(=O)NS(=O)(=O)c5ccccc5)ccc4n3CCOC)ccc21` [Example 50, 2-(9-Ethyl-9H-carbazol-3-yl)-1-(2-methoxyethyl)-N-(phenylsulphonyl)-1H-benzimidazole-5-carboxamide], for which the IC50 was 33.6 nM.

As to `CCn1c2ccccc2c2cc(-c3nc4cc(C(=O)NS(=O)(=O)C5CC5)ccc4n3CCOC)ccc21` [Example 16, N-(Cyclopropylsulphonyl)-2-(9-ethyl-9H-carbazol-3-yl)-1-(2-methoxyethyl)-1H-benzimidazole-5-carboxamide], the IC50 worked out at 28.6 nM.

Take `CCn1c2ccc(-c3nc4cc(C(=O)O)ccc4n3CC3CC3)cc2c2cccnc21` [Example 116, 1-(Cyclopropylmethyl)-2-(9-ethyl-9H-pyrido[2,3-b]indol-6-yl)-1H-benzimidazole-5-carboxylic acid]: the IC50 was 22.2 nM.

Values taken from US9708311B2, “Benzimidazole derivatives as EP4 antagonists” (BAYER PHARMA AKTIENGESELLSCHAFT, priority 2012, dated 2017).
